For 42 compounds, IC50 results are on record in US7452997B2 (priority 2004, dated 2008).

In one test the target is T1, human CB1 receptor (Homo sapiens, UniProt P21554).
T1 construct: expressed in transfected cells; host or cells: SK-N-MC cells, stably transfected with pcDNA3 CB-1 (human); semi-purified membrane pellet
In words: biochemical. The format is binding. In short, it runs like this: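 Radioligand binding was run at 30° C for 90 minutes, pH 7.5 Tris buffer containing 0.5 mg/mL fatty acid free BSA, on semi-purified membranes of stably transfected SK-N-MC cells. Filter-bound radioactivity was scintillation counted, with IC50 obtained by linear regression across compound concentrations.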

The next test deals with human CB2 receptor (Homo sapiens, UniProt P34972). In words: Binding assay, cannabinoid CB2 receptor ([3H]-CP-55,940 displacement). The conditions noted are these: SK-N-MC cell membranes, radioligand CP-55,940 0.2 nM. In short, it runs like this:
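Displacement of [3H]-CP-55,940 (0.2 nM) was measured over 90 min at 30 °C (pH 7.5 Tris/MgCl2/EDTA buffer with BSA), using semi-purified membranes of human CB2-transfected SK-N-MC cells. Bound counts collected on GF/C filters, 10 uM WIN 55,212 as nonspecific control; IC50 from varied concentrations.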

The mark [1] stands for this setting: Cannabinoid CB2 Receptor Binding IC50, human CB2 receptor.

Where two headings read alike, the source gives them in different places.

Chain of human CB2 receptor (P34972 whole entry): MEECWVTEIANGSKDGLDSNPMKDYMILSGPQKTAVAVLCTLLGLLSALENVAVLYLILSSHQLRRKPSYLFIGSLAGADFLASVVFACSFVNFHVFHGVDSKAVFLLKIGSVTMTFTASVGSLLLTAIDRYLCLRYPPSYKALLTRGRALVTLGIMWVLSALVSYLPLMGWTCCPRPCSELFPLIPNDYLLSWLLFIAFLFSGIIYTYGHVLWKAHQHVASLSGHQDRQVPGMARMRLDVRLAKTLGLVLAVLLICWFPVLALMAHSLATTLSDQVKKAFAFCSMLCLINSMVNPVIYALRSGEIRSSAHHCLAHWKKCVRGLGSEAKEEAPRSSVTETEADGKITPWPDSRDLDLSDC
T1 sequence (P21554 whole entry): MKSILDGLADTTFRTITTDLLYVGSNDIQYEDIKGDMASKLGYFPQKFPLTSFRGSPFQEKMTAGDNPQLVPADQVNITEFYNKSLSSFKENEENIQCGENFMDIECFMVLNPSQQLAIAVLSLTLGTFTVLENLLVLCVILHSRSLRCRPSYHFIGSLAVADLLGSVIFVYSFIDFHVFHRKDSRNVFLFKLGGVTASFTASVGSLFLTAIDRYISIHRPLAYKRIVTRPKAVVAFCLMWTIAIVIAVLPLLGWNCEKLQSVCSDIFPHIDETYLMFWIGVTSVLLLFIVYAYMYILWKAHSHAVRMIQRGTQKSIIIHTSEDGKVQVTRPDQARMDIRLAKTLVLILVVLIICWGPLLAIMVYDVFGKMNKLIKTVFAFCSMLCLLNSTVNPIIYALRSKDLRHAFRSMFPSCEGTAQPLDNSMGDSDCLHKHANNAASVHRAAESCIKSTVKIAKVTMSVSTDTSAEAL

A word on the IC50: it is the concentration that gives 50% inhibition. Regarding `CCOC(=O)C1C2CCC(C2)C1NC(=O)c1nn(Cc2ccc(C)cc2)c2c1CCCC2` (stereo not drawn) [compound 126], the IC50 against human CB1 receptor came to 597 nM; at human CB2 receptor (setting [1]) it was 593 nM.
Turning to `O=C(NC1CCCCCCC1)c1nn(Cc2ccccc2)c2c1CCCC2` [compound 127], the IC50 worked out at 9.9 nM against human CB1 receptor and 3.9 nM at human CB2 receptor (setting [1]).
The corresponding values for `CC12CCC(C1)C(C)(C)C2NC(=O)c1nn(-c2ccc(Cl)cc2Cl)c2c1CCCC2` (stereo not drawn) [compound 129] are 5.7 nM and 1.7 nM.
On the same counts, the results for `CCOC(=O)[C@H]1C2CCC(C2)[C@H]1NC(=O)c1nn(-c2ccc(Cl)cc2Cl)c2c1CCCC2` (stereo partly drawn) [compound 130] are 400 nM and 5 nM.
On the same counts, the results for `O=C(NC1C2CC3CC(C2)CC1C3)c1nn(-c2ccc(Cl)cc2Cl)c2c1CCCC2` (stereo not drawn) [compound 131] are 30 nM and 10 nM.
With `CC(NC(=O)c1nn(C2CCCCC2)c2c1CC(C(=O)O)CC2)C12CC3CC(CC(C3)C1)C2` (stereo not drawn) [compound 133], the IC50 was determined as 12000 nM against human CB1 receptor and 1340 nM on human CB2 receptor (setting [1]).
The corresponding values for `O=C(NCC12CC3CC(CC(C3)C1)C2)c1nn(Cc2ccccc2)c2c1CCCC2` [compound 135] are 670 nM and 20 nM.
On the same counts, the results for `O=C(NC1C2CC3CC(C2)CC1C3)c1nn(Cc2ccccc2)c2c1CCCC2` (stereo not drawn) [compound 136] are 0.8 nM and 0.5 nM.
As to `CCOC(=O)C1CCc2c(c(C(=O)NC3C4CCC(C4)C3C(=O)OCC)nn2C2CCCCC2)C1` (stereo not drawn) [compound 137], the results for the half-maximal inhibitory concentration (IC50) against human CB1 receptor and at human CB2 receptor (setting [1]) were 3950 nM and 1550 nM, respectively.
On the same counts, the results for `O=C(NC12CC3CC(CC(C3)C1)C2)c1nn(-c2ccc(Cl)cc2Cl)c2c1CCCC2` [compound 139] are 160 nM and 300 nM.
On the same counts, the results for `O=C(NC12CC3CC(CC(C3)C1)C2)c1c2c(nn1-c1ccc(Cl)cc1Cl)CCCC2` [compound 140] are 890 nM and 3400 nM.
The corresponding values for `O=C(NCC12CC3CC(CC(C3)C1)C2)c1nn(-c2ccc(Cl)cc2Cl)c2c1CCCC2` [compound 141] are 300 nM and 140 nM.
With `O=C(NCC12CC3CC(CC(C3)C1)C2)c1c2c(nn1-c1ccc(Cl)cc1Cl)CCCC2` [compound 142], the IC50 against human CB1 receptor is 600 nM; on human CB2 receptor (setting [1]) it was 400 nM.
On the same counts, the results for `O=C(NCC12CC3CC(CC(C3)C1)C2)c1nn(-c2ccc(F)cc2)c2c1CCCC2c1ccccc1` (stereo not drawn) [compound 145] are 950 nM and 1100 nM.
On the same counts, the results for `CCOC(=O)C1CCc2c(c(C(=O)NC(C)C34CC5CC(CC(C5)C3)C4)nn2Cc2ccccc2)C1` (stereo not drawn) [compound 148] are 13 nM and 30 nM.
On the same counts, the results for `O=C(NC12CC3CC(CC(C3)C1)C2)c1nn(-c2ccc(F)cc2)c2c1CCCC2CCc1ccccc1` (stereo not drawn) [compound 150] are 130 nM and 40 nM.
`O=C(NCC12CC3CC(CC(C3)C1)C2)c1nn(-c2ccc(F)cc2)c2c1CCCC2CCc1ccccc1` (stereo not drawn) [compound 152]: the figures for the IC50 against human CB1 receptor and at human CB2 receptor (setting [1]) were 340 nM and 200 nM, respectively.
The corresponding values for `CC(NC(=O)c1nn(-c2ccc(F)cc2)c2c1CCCC2CCc1ccccc1)C12CC3CC(CC(C3)C1)C2` (stereo not drawn) [compound 153] are 1390 nM and 60 nM.
Regarding `CCOC(=O)C1CCCc2c1c(C(=O)NC1C3CC4CC(C3)CC1C4)nn2Cc1ccccc1` (stereo not drawn) [compound 158], the figures for the IC50 against human CB1 receptor and at human CB2 receptor (setting [1]) were 13 nM and 9 nM, respectively.
On the same counts, the results for `CCOC(=O)C1CCCc2c1c(C(=O)NCC13CC4CC(CC(C4)C1)C3)nn2Cc1ccccc1` (stereo not drawn) [compound 159] are 740 nM and 130 nM.
In the case of `COC1CCCc2c(C(=O)NC(C)C34CC5CC(CC(C5)C3)C4)nn(C3CCCCC3)c21` (stereo not drawn) [compound 161], the values for the IC50 against human CB1 receptor and at human CB2 receptor (setting [1]) were 5230 nM and 775 nM, respectively.
`COC1CCCc2c(C(=O)NC3C4CC5CC(C4)CC3C5)nn(C3CCCCC3)c21` (stereo not drawn) [compound 162]: the half-inhibitory concentration (IC50) stood at 635 nM at human CB1 receptor (human CB1 receptor, SK-N-MC cell membranes, radioligand CP-55,940 0.2 nM, read-out: Cannabinoid CB1 Receptor Binding IC50) and 110 nM at human CB2 receptor (human CB2 receptor, read-out: Cannabinoid CB2 Receptor Binding IC50).
`CC(NC(=O)c1nn(C2CCCCC2)c2c1CCCC2O)C12CC3CC(CC(C3)C1)C2` (stereo not drawn) [compound 163]: the IC50 on human CB1 receptor was found to be 4770 nM; at human CB2 receptor (setting [1]), 210 nM.
Turning to `CCOC(=O)N1CCC(NC(=O)c2nn(Cc3ccccc3)c3c2CCCC3)CC1` [compound 171], the half-maximal inhibitory concentration (IC50) worked out at 640 nM against human CB1 receptor and 300 nM at human CB2 receptor (setting [1]).
On the same counts, the results for `O=C(NCc1cccnc1)c1nn(C2CCCCC2)c2c1CCCC2` [compound 173] are 444 nM and 526 nM.
The corresponding values for `O=C(CNC(=O)c1nn(C2CCCCC2)c2c1CCCC2)c1ccc(Br)cc1` [compound 177] are 10500 nM and 2400 nM.
The corresponding values for `O=C(Nc1nn(C2CCCCC2)c2c1CCCC2)C12CC3CC(CC(C3)C1)C2` [compound 179] are 7300 nM and 700 nM.
As for `O=C(Nc1nn(C2CCCCC2)c2c1CCCC2)C1CCCCC1` [compound 180], the 50% inhibitory concentration (IC50) against human CB1 receptor was found to be 700 nM; at human CB2 receptor (setting [1]), 1700 nM.
Turning to `O=C(Nc1nn(C2CCCCC2)c2c1CCCC2)c1cccc2ccccc12` [compound 181], the results for the IC50 on human CB1 receptor and at human CB2 receptor (setting [1]) were 300 nM and 1600 nM, respectively.
The corresponding values for `O=C(NC1CCCc2ccccc21)c1nn(C2CCCCC2)c2c1CCCC2` (stereo not drawn) [compound 183] are 50 nM and 6.9 nM.
On the same counts, the results for `O=C(NCC(O)C1CCCCC1)c1nn(C2CCCCC2)c2c1CCCC2` (stereo not drawn) [compound 185] are 900 nM and 120 nM.
On the same counts, the results for `O=C(NCC(=O)C1CCCCC1)c1nn(C2CCCCC2)c2c1CCCC2` [compound 187] are 3690 nM and 1600 nM.
In the case of `O=C(NCC1CCCCC1)c1nn(Cc2ccccc2)c2c1CCCC2` [compound 189], the half-inhibitory concentration (IC50) on human CB1 receptor and on human CB2 receptor (setting [1]) was 10 nM in each case.
`CCOC(=O)C1CCc2nn(C3CCCCC3)c(C(=O)NC(C)C34CC5CC(CC(C5)C3)C4)c2C1` (stereo not drawn) [compound 190]: the IC50 at human CB1 receptor came out at 1620 nM; on human CB2 receptor (setting [1]), 4500 nM.
On the same counts, the results for `CCC1CCCc2c(C(=O)NC3C4(C)CCC(C4)C3(C)C)nn(-c3ccc(F)cc3)c21` (stereo not drawn) [compound 192] are 60 nM and 2 nM.
The corresponding values for `CC(NC(=O)c1nn(C2CCCCC2)c2c1CCCC2)C1CCCC1` (stereo not drawn) [compound 193] are 120 nM and 5 nM.
`C[C@H](NC(=O)c1nn(C2CCCCC2)c2c1CCCC2)c1ccccc1` [compound 196]: the IC50 at human CB1 receptor is 125 nM; at human CB2 receptor (setting [1]) it was 120 nM.
For `C[C@@H](NC(=O)c1nn(C2CCCCC2)c2c1CCCC2)c1ccccc1` [compound 197], the IC50 amounted to 980 nM against human CB1 receptor and 800 nM at human CB2 receptor (setting [1]).
On the same counts, the results for `C[C@@H](NC(=O)c1nn(Cc2ccccc2)c2c1CCCC2)C1CCCCC1` [compound 198] are 100 nM and 5.7 nM.
On the same counts, the results for `C[C@@H](NC(=O)c1nn(Cc2ccccc2)c2c1CCCC2)c1ccccc1` [compound 199] are 19 nM and 10 nM.
On to `C[C@H](NC(=O)c1nn(Cc2ccccc2)c2c1CCCC2)c1ccccc1` [compound 200], for which the half-maximal inhibitory concentration (IC50) against human CB1 receptor was determined as 8 nM; at human CB2 receptor (setting [1]), 1 nM.
Take `C[C@H](NC(=O)c1nn(Cc2ccccc2)c2c1CCCC2)C1CCCCC1` [compound 201]: the IC50 against human CB1 receptor amounted to 1.7 nM; on human CB2 receptor (setting [1]) it was 2 nM.
